The values below come from patent publication US6589762B1, “Calcafluor screen for chitin biosynthesis inhibitors” (priority 1993, dated 2003).

Assay [1] deals with Saccharomyces cerevisiae strain Y294. The assay is described as follows: Calcofluor rescue screen (disk or well diffusion). The class given is cell-based. How it is done:
A preferred method comprises adding a test sample to a Saccharomyces cerevisiae culture containing calcofluor white or a calcofluor white derivative. The test sample is introduced to a disk or a well on a culture plate in a standard diffusion assay using solidified media, or introduced into one of a series of equivalent tissue culture tubes or bottles in a standard turbidity assay using liquid media. The culture is incubated for such time under such conditions sufficient to observe yeast cell growth inhibition in a corresponding culture or culture plate area containing calcofluor white but no test sample. The extent of growth of the culture containing or surrounding the test sample is compared with the extent of growth in the culture or culture area containing no test sample. The presence of chitin synthesis inhibition is determined by observing whether growth in the presence of test sample exceeds growth in its absence. In a culture plate, this is a turbid zone of growth surrounding the test sample. In a culture tube series, this is enhanced turbidity.
autoclaving at 20 lbs for 15 min. Strain Y294 having genotype MATα leu2-3,112 ura3-52 his3Δ trp1 GAL+[CIR+] inoculated into this liquid media and grown overnight, an OD600 of ˜5 or greater, while being shaken at 30° C.
The plates are poured and test samples are placed on the plates. A ¼″ disk containing […] of nikkomycin Z is used as a positive control. The plates are incubated at 30° C. for two days and then examined for activity. Actives produce a turbid zone surrounding the test sample.
All compounds are tested by disk diffusion assay using the method of this invention at a rate of 20 μg/disk.

The next assay concerns the target Chs1 (Saccharomyces cerevisiae, UniProt P08004). Conditions: Cabib, Antimicrob. Agents Chemother. 35: 170-173 (1991); cited from earlier work.
The next assay relates to A.T.C.C. strain S288c. The assay is described as follows: Comparison growth inhibition screen with strain S288c. Type of assay: cell-based, Saccharomyces cerevisiae. To be noted: same conditions at the same levels as Table III.
Assay [2] deals with strain ECY36-3C (relies on chitin synthase isozyme 3). The assay can be described thus: In vivo secondary screen, growth of chitin synthase mutant yeast. The class given is cell-based, Saccharomyces cerevisiae. Conditions: for growth of strain ECY36-3C (in words): strain producing only Chs3. The text has this:
(§1) One type of calcofluor rescue secondary screen is an in vivo test that assays the effect of compounds on the growth of chitin synthase mutant yeast strains that rely on a single chitin synthase isozyme for survival. A number of these strains have been described, such as the strains that rely on chitin synthase isozymes 2 or 3 described by Shaw, J. A., et al. (J. Cell Biol. 114: 111-123 (1991)) and similar strains described in the Examples section below. In this type of secondary screening test, the test sample added to and incubated in a culture of a mutant yeast strain producing only chitin synthase 2 or 3 (denoted, respectively, Chs2 and Chs3) for such time under such conditions sufficient to observe growth in a corresponding culture containing no test sample. A comparison of the extent of growth in the culture containing test sample with growth in its absence is then made. Inhibition of growth in the presence of test sample indicates inhibition of synthase isozyme produced by the strain. Any type of growth assessment may be employed but, as in the primary calcofluor rescue screen, preferred cultures in the secondary screen are solid, with test samples applied to a disk or well, so that cell growth can be easily determined by visual inspection.
(§2) Especially preferred in vivo secondary screens employ a pair of genetically related strains, one producing one isozyme, e.g., Chs2, and the other producing a different isozyme, e.g., Chs3. Using pairs allows for the simultaneous determination that culture conditions are appropriate for growth in the absence of inhibition and the identification of which isozyme may be affected by inhibition. The pairs, for example, include the ECY36-3C and ECY36-3D strains described by Shaw, cited above, that produce only Chs3 and Chs 2, respectively, and similar pairs such as SSY640-10A (containing only Chs3) and SSY-638-3B (containing only Chs 2) described in the Examples below. […] In a similar manner, a comparison of differential effects observed in the growth of strain pairs in the presence of a test sample allows for the putative identification of which isozyme is affected by the sample.
(§3) In Vivo Secondary Screens. The in vivo calcofluor rescue secondary screens assay the differential effect of compounds on the growth of two pairs of yeast strains. Each strain in the pairs, denoted ECY36-3C and ECY36-3D and SSY640-10A and SSY638-3B, is a chitin synthase mutant that relies on the expression of a single chitin synthase isozyme for its survival.
(§4) Strains ECY36-3C and ECY36-3D are described by Shaw, J. A., et al., cited above. ECY36-3C has the genotype MATa, chs1-23, chs2::LEU2, ura3-52, leu2-3,112, trp1-1 and ECY36-3D has the genotype MATa, chs1-23, ca1^R1 (chs3^−), ura3-52, leu2-3,112, trp1-1. Both strains are segregants from crossing strain ECY33-18A (Mata, chs1-23, ca1^R1, ura3-52, leu2-3,112, trp1-1) and ECY19 Δ22 2-5B (MATα, chs1-23, chs2::LEU2, ura3-52, leu2-3,112, trp1-1) using standard methodology. ECY36-3C relies on the expression of chitin synthase isozyme 3 for survival, and ECY36-3D relies on chitin synthase isozyme 2 (Chs2).
(§5) Strains ECY36-3C and ECY36-3D are inoculated in SD medium containing nutritional supplements appropriate to strain growth, e.g., containing about 0.01% (w/v) each of uracil, adenine sulfate, leucine, tryptophan, histidine, and lysine. When the cultures reach stationary phase (typically after 24 hours), they are used immediately or stored at 4° C. for up to a week before use. The cultures are diluted 1/100 into YEPD medium containing 2% agar which has been maintained at ˜50° C., immediately poured into petri dishes, and allowed to cool. Test compounds are applied to cellulose filter disks as described in Example 1 above (e.g., nikkomycin Z, 4 μl of a 5 mg/ml solution), and the disks are applied to the agar. Plates are incubated at 30° C. overnight and growth inhibitory zones are measured around the disks after 24 hours. […]

Assay [3] deals with strain ECY36-3D (relies on chitin synthase isozyme 2). The assay is described as above. The class given is cell-based, Saccharomyces cerevisiae. To be noted: for growth of strain ECY36-3D (in words): strain producing only Chs2.
Description: as §1, §2, §3, §4, §5

In assay [4] the test system is selected phytopathogenic fungi (Pseudocercosporella herpotrichoides, Rhizoctonia solani, Fusarium oxysporum). The assay can be described thus: In vitro fungicide discovery screen (growth in nutrient agar). The class given is cell-based. Conditions: 25 μg/ml. The procedure: Standard in vitro and in vivo fungicide discovery screens are employed as tertiary tests to prioritize actives from the calcofluor rescue screen and the secondary screens. […] These include fungi causing wheat eyespot (Pseudocercosporella herpotrichoides), rice sheath blight (Rhizoctonia solani) and damping off (Fusarium oxysporum); all synthesize chitin-containing cell walls. High potency fungicides are active against these species in the 10 ppm range (10 μg/ml), while nikkomycin Z can be detected at ˜70 μg/ml in the calcofluor rescue assay if 30 μl volumes are tested in welled plates.

Setting [5] is: filter disk on YEPD agar, 24 hours, total applied: Nikkomycin Z 25 μg, Test Compound 1 45 μg, Test Compound 2 200 μg.

Chain of Chs1 (P08004 whole entry): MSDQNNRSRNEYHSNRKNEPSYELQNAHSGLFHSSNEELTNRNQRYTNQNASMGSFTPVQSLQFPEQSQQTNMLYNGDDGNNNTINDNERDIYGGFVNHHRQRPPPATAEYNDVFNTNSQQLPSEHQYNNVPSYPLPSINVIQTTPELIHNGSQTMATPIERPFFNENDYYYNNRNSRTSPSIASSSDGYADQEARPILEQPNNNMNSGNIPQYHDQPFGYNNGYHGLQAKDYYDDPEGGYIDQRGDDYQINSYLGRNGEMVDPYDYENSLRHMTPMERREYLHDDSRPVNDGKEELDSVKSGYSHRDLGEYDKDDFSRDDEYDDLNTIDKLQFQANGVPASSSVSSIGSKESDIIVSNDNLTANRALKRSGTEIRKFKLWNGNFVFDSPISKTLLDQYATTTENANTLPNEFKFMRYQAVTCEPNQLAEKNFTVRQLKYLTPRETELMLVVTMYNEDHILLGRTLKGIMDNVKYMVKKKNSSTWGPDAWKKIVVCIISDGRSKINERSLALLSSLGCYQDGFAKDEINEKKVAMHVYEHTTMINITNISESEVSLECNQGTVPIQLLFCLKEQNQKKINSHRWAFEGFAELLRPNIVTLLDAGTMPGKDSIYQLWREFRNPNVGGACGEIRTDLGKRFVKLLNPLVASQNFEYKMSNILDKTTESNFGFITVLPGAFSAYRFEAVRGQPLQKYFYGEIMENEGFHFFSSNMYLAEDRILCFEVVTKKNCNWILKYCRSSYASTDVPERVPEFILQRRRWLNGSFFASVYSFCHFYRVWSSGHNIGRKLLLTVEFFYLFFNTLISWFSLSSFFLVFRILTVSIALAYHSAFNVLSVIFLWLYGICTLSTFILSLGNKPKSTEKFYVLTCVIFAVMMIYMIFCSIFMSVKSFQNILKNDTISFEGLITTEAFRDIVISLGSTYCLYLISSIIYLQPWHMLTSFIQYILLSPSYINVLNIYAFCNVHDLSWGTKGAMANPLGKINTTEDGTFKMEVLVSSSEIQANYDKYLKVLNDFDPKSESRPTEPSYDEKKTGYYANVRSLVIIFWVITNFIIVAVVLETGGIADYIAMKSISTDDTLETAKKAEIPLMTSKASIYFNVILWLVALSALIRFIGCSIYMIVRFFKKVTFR

On to `C[C@@H]([C@H](N)C(=O)N[C@H](C(=O)O)[C@H]1O[C@@H](n2ccc(=O)[nH]c2=O)[C@H](O)[C@@H]1O)[C@H](O)c1ccc(O)cn1` [nikkomycin Z], for which the “concentration at which detected in the calcofluor rescue assay” value in assay [1] (30 μl volumes tested in welled plates) is roughly 70 µg/mL. The “activity in the calcofluor rescue screen (turbid zone of growth)” value in assay [1] (disk diffusion assay, 20 μg/disk, 30° C., two days) was “active”. For the same molecule, on Chs1, the “inhibition of Chs1 relative to Chs2” value is on record as “inhibit the activity of Chs1 to a much greater extent than Chs2”. The “growth inhibition of strain S288c” value with A.T.C.C. strain S288c was “no inhibition”. In addition, the “differential effect on Chs3-only versus Chs2-only strains” value in assay [2] (comparison of strain pairs) is recorded as “inhibits Chs3 to a significantly greater extent than Chs2”. Besides, in assay [2] (setting [5]), the “zone of inhibition, ECY36-3C” value is listed as 21 mm. Besides, the “growth of strain ECY36-3C (in words)” value in assay [2] is on record as “inhibited”; in assay [2] (listed as Nikkomycin Z) it was “inhibit the growth”. Further, the “zone of inhibition, ECY36-3D” value in assay [3] (setting [5]) worked out at 0 mm. Further, the “growth of strain ECY36-3D (in words)” value in assay [3] was “unaffected”; in assay [3] (listed as Nikkomycin Z), “does not inhibit growth”. The “activity against phytopathogenic fungi” value in assay [4] is “weakly active”.
